Reference: patent US10428041B2, “Pyridyl reverse sulfonamides for HBV treatment” (Novira Therapeutics, Inc., priority 2014, dated 2019)

Test system: HBV replication in HepG2-2.2.15 cells
Assay: Inhibition of HBV replication dot-blot assay
Format: cell-based
Conditions: Hepatitis B virus, 144 h, reduction in HBV DNA levels, six days
Experimental: Compounds active in the HBV assembly assay are tested for their activity and toxicity in cellular assay. In the first anti-viral assay, the ability of compounds to inhibit HBV replication in an HBV-producing hepatoma cell line using the dot-blot method is evaluated.
(§1) Briefly, confluent monolayers of HepG2-2.2.15 cells are incubated with complete medium containing various concentrations of a test compound. Three days later, the culture medium is replaced with fresh medium containing the appropriately diluted test compound. Six days following the initial administration of the test compound, the cell culture supernatant is collected, and cell lysis is performed. The samples are applied onto Nylos membranes and DNA is immobilized to the membrane by UV cross-linking. After pre-hybridization, the HBV probe is added and the hybridization is performed overnight. The membranes are exposed to the KODAK films; antiviral activity is calculated from the reduction in HBV DNA levels (EC50). The EC50 for antiviral activity is calculated from the dose response curves of active compounds. Assay performance over time is monitored by the use of the standard positive control compounds ETV, BAY 41-4109, and HAP-1.
Selected compounds are tested for their activity and toxicity in cellular assay. In the first anti-viral assay, the ability of compounds to inhibit HBV replication in an HBV-producing hepatoma cell line using the dot-blot method is evaluated.
as §1, with “Confluent monolayers” for “Briefly, confluent monolayers”, “lysis was” for “lysis is”

SMILES | EC50
O=C(Nc1ccc(F)c(Cl)c1)c1ccnc(NS(=O)(=O)CCc2ccccc2)c1 [Compound 21, N-(3-Chloro-4-fluorophenyl)-2-(2-phenylethylsulfonamido)isonicotinamide] | < 10 µM
O=C(Nc1ccc(F)c(Cl)c1)c1ccnc(NS(=O)(=O)CCC2CC2)c1 [Compound 23, N-(3-Chloro-4-fluorophenyl)-2-(2-cyclopropylethylsulfonamido)isonicotinamide] | < 10 µM
CS(=O)(=O)Nc1cc(C(=O)Nc2ccc(F)c(Cl)c2)ccn1 [Compound 35, N-(3-Chloro-4-fluorophenyl)-2-(methylsulfonamido)isonicotinamide] | < 10 µM
O=C(Nc1ccc(F)c(Cl)c1)c1ccnc(NS(=O)(=O)CC2CC2)c1 [Compound 36, N-(3-Chloro-4-fluorophenyl)-2-(cyclopropylmethylsulfonamido)isonicotinamide] | < 10 µM
